The target in the assay is T1, human Cereblon WT GST-tagged protein (Homo sapiens, UniProt Q96SW2).
T1 construct: purchased CISBIO 64BDCRBNPEH
Kind of assay: CRBN-binding affinity, HTRF (CEREBLON BINDING kit). The following applies: for inhibition at 0.5 µM: read-out: Inhibition Rate at 0.5 µM (%); for inhibition at 2 µM: read-out: Inhibition Rate at 2 µM (%); for IC50: CRBN binding, HTRF, 3 hours at room temperature, read-out: HTRF IC50. The method, then: The CEREBLON BINDING kits (specification: 10,000 tests; product number: Catalog # 64BDCRBNPEH; CISBIO company) was used to determine the CRBN binding ability of the compounds to be tested through a HTRF method (homogeneous time-resolved fluorescence). The specific methods are as follows: • 1. […] Specifically, diluent #9 (1X) solution was used as the diluent, and multiple concentration gradients were set. […] Then, 2.5 µL of human Cereblon WT GST-tagged protein solution was added to each well. Finally, 5 µL of the thoroughly mixed Thalidomide-Re reagent and GST Eu antibody working solution were added to each of the aforementioned wells. […] The blank control wells were sequentially added with 2.5 µL of diluent #9 (1X) solution, 2.5 µL of PROTAC binding buffer, and 5 µL of thoroughly mixed Thalidomide-Re reagent and GST Eu antibody working solution. • 4.

As usually defined, the inhibition is how much of the control response was suppressed. Broadly, the IC50 is the concentration that inhibits the measured activity by half.

T1 sequence (Q96SW2 whole entry): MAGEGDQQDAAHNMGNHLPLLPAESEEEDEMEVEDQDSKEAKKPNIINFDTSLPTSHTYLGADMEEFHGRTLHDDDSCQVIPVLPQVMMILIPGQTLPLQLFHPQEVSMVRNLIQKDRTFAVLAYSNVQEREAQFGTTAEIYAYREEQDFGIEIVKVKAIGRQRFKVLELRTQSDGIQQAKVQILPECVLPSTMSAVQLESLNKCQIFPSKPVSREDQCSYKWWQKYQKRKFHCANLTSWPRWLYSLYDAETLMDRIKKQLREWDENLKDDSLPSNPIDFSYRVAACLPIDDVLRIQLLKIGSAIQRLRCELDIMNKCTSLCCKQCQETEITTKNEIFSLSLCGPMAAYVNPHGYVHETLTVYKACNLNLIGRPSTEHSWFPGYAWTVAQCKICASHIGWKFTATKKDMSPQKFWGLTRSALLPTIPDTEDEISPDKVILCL

Turning to `O=C1CCC(N2Cc3cc(CN4CCN(c5noc6cc(F)ccc56)CC4)ccc3C2=S)C(=O)N1` (stereo not drawn) [GT-09257], the inhibition at 0.5 µM is 60 to 80% and the inhibition at 2 µM fell in the range of 80 to 100%. Turning to `O=C1CCC(N2Cc3cc(CN4CCC(c5cccc6cnccc56)CC4)ccc3C2=S)C(=O)N1` (stereo not drawn) [GT-09277, 3-(5-((4-(isoquinolin-5-yl)piperidin-1-yl)methyl)-1-thioxoisoindolin-2-yl)piperidine-2,6-dione], the inhibition at 0.5 µM lay in the range of 40 to 53% and the inhibition at 2 µM is 80 to 100%.

Take `O=C1CCC(N2Cc3c(CN4CCC(c5noc6ccccc56)CC4)cccc3C2=S)C(=O)N1` (stereo not drawn) [GT-08816, 3-(4-((4-(benzo[d]isoxazol-3-yl)piperidin-1-yl)methyl)-1-thioxoisoindolin-2-yl)piperidine-2,6-dione]: the inhibition at 0.5 µM was in the range of 60 to 80% and the inhibition at 2 µM was in the range of 80 to 100%. Turning to `O=C1CCC(N2Cc3c(CO)cccc3C2=S)C(=O)N1` (stereo not drawn) [GT-06981, 3-(4-(hydroxymethyl)-1-thioxoisoindolin-2-yl)piperidine-2,6-dione], the IC50 is under 100 nM.

With `O=C1CCC(N2Cc3c(CN4CCN(c5ncccc5C(F)(F)F)CC4)cccc3C2=S)C(=O)N1` (stereo not drawn) [GT-08700, 3-(1-thioxo-4-((4-(3-(trifluoromethyl)pyridin-2-yl)piperazin-1-yl)methyl)isoindolin-2-yl)piperidine-2,6-dione], the inhibition at 0.5 µM was in the range of 53 to 60% and the inhibition at 2 µM was 80 to 100%.

As to `O=C1CCC(N2Cc3c(CN4CCN(c5nc6c(c(N7CCNCC7)n5)SCC6)CC4)cccc3C2=S)C(=O)N1` (stereo not drawn) [GT-09035, 3-(4-((4-(4-(piperazin-1-yl)-6,7-dihydrothieno[3,2-d]pyrimidin-2-yl)piperazin-1-yl)methyl)-1-thioxoisoindolin-2-yl)piperidine-2,6-dione], the inhibition at 0.5 µM is 60 to 80% and the inhibition at 2 µM was in the range of 80 to 100%.

In the case of `O=C1CCC(N2Cc3c(CN4CCN(c5cccc(Br)c5)CC4)cccc3C2=S)C(=O)N1` (stereo not drawn) [GT-08261, 3-(4-((4-(3-bromophenyl)piperazin-1-yl)methyl)-1-thioxoisoindolin-2-yl)piperidine-2,6-dione], the inhibition at 0.5 µM fell in the range of 30 to 40% and the inhibition at 2 µM was in the range of 60 to 80%. On to `Cc1sc2ncnc(N3CCCN(Cc4ccc5c(c4)CN(C4CCC(=O)NC4=O)C5=S)CC3)c2c1C` (stereo not drawn) [GT-09287, 3-(5-((4-(5,6-dimethylthieno[2,3-d]pyrimidin-4-yl)-1,4-diazepan-1-yl)methyl)-1-thioxoisoindolin-2-yl)piperidine-2,6-dione], for which the inhibition at 0.5 µM lay in the range of 80 to 100% and the inhibition at 2 µM fell in the range of 80 to 100%. For `O=C1CCC(N2Cc3cc(CN4CCC(N5C(=O)COc6cc(F)ccc65)CC4)ccc3C2=S)C(=O)N1` (stereo not drawn) [GT-09273, 3-(5-((4-(7-fluoro-3-oxo-2,3-dihydro-4H-benzo[b][1,4]oxazin-4-yl)piperidin-1-yl)methyl)-1-thioxoisoindolin-2-yl)piperidine-2,6-dione], the inhibition at 0.5 µM lay within 60 to 80% and the inhibition at 2 µM was in the range of 80 to 100%. Turning to `O=C1CCC(N2Cc3cc(CN4CCN(c5nsc6ccccc56)CC4)ccc3C2=S)C(=O)N1` (stereo not drawn) [GT-05091, 3-(5-((4-(benzo[d]isothiazol-3-yl)piperazin-1-yl)methyl)-1-thioxoisoindolin-2-yl)piperidine-2,6-dione], the IC50 was under 100 nM. Same read-out and setting: for `O=C1CCC(N2Cc3cc(CN4CCn5c(nnc5C(F)(F)F)C4)ccc3C2=S)C(=O)N1` (stereo not drawn) [GT-05090, 3-(1-thioxo-5-((3-(trifluoromethyl)-5,6-dihydro-[1,2,4]triazolo[4,3-a]pyrazin-7(8H)-yl)methyl)isoindolin-2-yl)piperidine-2,6-dione] the value was 100 to 500 nM. Take `O=C1CCC(N2Cc3cc(CN4CCN(c5c(Cl)cncc5Cl)CC4)ccc3C2=S)C(=O)N1` (stereo not drawn) [GT-09246, 3-(5-((4-(3,5-dichloropyridin-4-yl)piperazin-1-yl)methyl)-1-thioxoisoindolin-2-yl)piperidine-2,6-dione]: the inhibition at 0.5 µM lay within 80 to 100% and the inhibition at 2 µM lay within 80 to 100%. As for `O=C1CCC(N2Cc3c(CN4CCN(c5cccs5)CC4)cccc3C2=S)C(=O)N1` (stereo not drawn) [GT-08297, 3-(4-((4-(thiophen-2-yl)piperazin-1-yl)methyl)-1-thioxoisoindolin-2-yl)piperidine-2,6-dione], the inhibition at 0.5 µM was in the range of 60 to 80% and the inhibition at 2 µM lay in the range of 80 to 100%. The matching figures for `O=C1CCC(N2Cc3c(CN4CCC(C5CCOc6cc(F)ccc65)CC4)cccc3C2=S)C(=O)N1` (stereo not drawn) [GT-08854, 3-(4-((4-(7-fluorochroman-4-yl)piperidin-1-yl)methyl)-1-thioxoisoindolin-2-yl)piperidine-2,6-dione]: 40 to 53% and 80 to 100%.

Turning to `O=C1CCC(N2Cc3cc(CN4CCN(C(=O)C5=C(c6ccc(F)cc6)CCCC5)CC4)ccc3C2=S)C(=O)N1` (stereo not drawn) [GT-08165, 3-(5-((4-(4'-fluoro-3,4,5,6-tetrahydro-[1,1'-biphenyl]-2-carbonyl)piperazin-1-yl)methyl)-1-thioxoisoindolin-2-yl)piperidine-2,6-dione], the inhibition at 0.5 µM was 60 to 80% and the inhibition at 2 µM was in the range of 80 to 100%. Turning to `Cc1nc(C2CCN(Cc3ccc4c(c3)CN(C3CCC(=O)NC3=O)C4=S)CC2)c2c(-c3ccccc3)csc2n1` (stereo not drawn) [GT-09308], the inhibition at 0.5 µM lay in the range of 40 to 53% and the inhibition at 2 µM fell in the range of 80 to 100%. For `Cc1cc2c(N3CCN(Cc4ccc5c(c4)CN(C4CCC(=O)NC4=O)C5=S)CC3)ncnc2s1` (stereo not drawn) [GT-09282, 3-(5-((4-(6-methylthieno[2,3-d]pyrimidin-4-yl)piperazin-1-yl)methyl)-1-thioxoisoindolin-2-yl)piperidine-2,6-dione], the inhibition at 0.5 µM is 60 to 80% and the inhibition at 2 µM lay within 80 to 100%. In the case of `O=C1CCC(N2Cc3cc(CN4CC5CCC(C4)N5C(c4ccccc4)c4ccccc4)ccc3C2=S)C(=O)N1` (stereo not drawn) [GT-07849, 3-(5-((8-benzhydryl-3,8-diazabicyclo[3.2.1]octan-3-yl)methyl)-1-thioxoisoindolin-2-yl)piperidine-2,6-dione], the inhibition at 0.5 µM was 30 to 40% and the inhibition at 2 µM was 60 to 80%.

Consider `O=C1CCC(N2Cc3c(CN4CC5CCC(C4)N5C(c4ccccc4)c4ccccc4)cccc3C2=S)C(=O)N1` (stereo not drawn) [GT-08234, 3-(4-((8-benzhydryl-3,8-diazabicyclo[3.2.1]octan-3-yl)methyl)-1-thioxoisoindolin-2-yl)piperidine-2,6-dione], for which the inhibition at 0.5 µM is 40 to 53% and the inhibition at 2 µM lay within 60 to 80%. Consider `O=C1CCC(N2Cc3ccc(CN4CCc5sccc5C4)cc3C2=S)C(=O)N1` (stereo not drawn) [GT-05039, 3-(6-((6,7-dihydrothieno[3,2-c]pyridin-5(4H)-yl)methyl)-1-thioxoisoindolin-2-yl)piperidine-2,6-dione], for which the IC50 is 100 to 500 nM. With `Cc1cc2c(C3CCN(Cc4ccc5c(c4)CN(C4CCC(=O)NC4=O)C5=S)CC3)ncnc2s1` (stereo not drawn) [GT-09305, 3-(5-((4-(6-methylthieno[2,3-d]pyrimidin-4-yl)piperidin-1-yl)methyl)-1-thioxoisoindolin-2-yl)piperidine-2,6-dione], the inhibition at 0.5 µM is 60 to 80% and the inhibition at 2 µM is 80 to 100%. With `O=C1CCC(N2Cc3cc(CN4CCN(c5ccc(C(F)(F)F)cc5)CC4)ccc3C2=S)C(=O)N1` (stereo not drawn) [GT-08239, 3-(1-thioxo-5-((4-(4-(trifluoromethyl)phenyl)piperazin-1-yl)methyl)isoindolin-2-yl)piperidine-2,6-dione], the inhibition at 0.5 µM was 40 to 53% and the inhibition at 2 µM fell in the range of 80 to 100%. On the same counts, the results for `Cc1nc(C2=CCN(Cc3ccc4c(c3)CN(C3CCC(=O)NC3=O)C4=S)CC2)c2c3c(sc2n1)CCCC3` (stereo not drawn) [GT-09323, 3-(5-((4-(2-methyl-5,6,7,8-tetrahydrobenzo[4,5]thieno[2,3-d]pyrimidin-4-yl)-3,6-dihydropyridin-1(2H)-yl)methyl)-1-thioxoisoindolin-2-yl)piperidine-2,6-dione] are 40 to 53% and 80 to 100%. In the case of `O=C1CCC(N2Cc3cc(CN4CCN(c5cc(Cl)nnc5Cl)CC4)ccc3C2=S)C(=O)N1` (stereo not drawn) [GT-09248, 3-(5-((4-(3,6-dichloropyridazin-4-yl)piperazin-1-yl)methyl)-1-thioxoisoindolin-2-yl)piperidine-2,6-dione], the inhibition at 0.5 µM lay in the range of 60 to 80% and the inhibition at 2 µM lay within 80 to 100%.

Consider `Cc1nc(N2CCN(Cc3cccc4c3CN(C3CCC(=O)NC3=O)C4=S)CC2)c2c(-c3ccccc3)csc2n1` (stereo not drawn) [GT-08921, 3-(4-((4-(2-methyl-5-phenylthieno[2,3-d]pyrimidin-4-yl)piperazin-1-yl)methyl)-1-thioxoisoindolin-2-yl)piperidine-2,6-dione], for which the inhibition at 0.5 µM lay in the range of 30 to 40% and the inhibition at 2 µM fell in the range of 80 to 100%. Take `O=C1CCC(N2Cc3ccc(CN4CCN(c5nsc6ccccc56)CC4)cc3C2=S)C(=O)N1` (stereo not drawn) [GT-05040, 3-(6-((4-(benzo[d]isothiazol-3-yl)piperazin-1-yl)methyl)-1-thioxoisoindolin-2-yl)piperidine-2,6-dione]: the IC50 lay in the range of 100 to 500 nM. On to `O=C1CCC(N2Cc3c(CN4CCN(C(c5ccccn5)c5ccccn5)CC4)cccc3C2=S)C(=O)N1` (stereo not drawn) [GT-08201, 3-(4-((4-(di(pyridin-2-yl)methyl)piperazin-1-yl)methyl)-1-thioxoisoindolin-2-yl)piperidine-2,6-dione], for which the inhibition at 0.5 µM lay in the range of 40 to 53% and the inhibition at 2 µM was in the range of 80 to 100%. The matching figures for `O=C1CCC(N2Cc3cc(CN4CCN(c5ncnc6sccc56)CC4)ccc3C2=S)C(=O)N1` (stereo not drawn) [GT-09280, 3-(5-((4-(thieno[2,3-d]pyrimidin-4-yl)piperazin-1-yl)methyl)-1-thioxoisoindolin-2-yl)piperidine-2,6-dione]: 80 to 100% and 80 to 100%.
